{
  "source": "paper PMC4176394",
  "about": "(Journal of Natural Products, 2014)",
  "key": {"[1]": {"tested_on": "HT-29 (colon) cancer cell line", "experiment": "Cytotoxicity assay, HT-29 cells", "type": "cell-based, human", "settings": "for pIC50: Homo sapiens, HT-29, 72 h, read-out: IC50 values, HT-29"}, "[2]": {"tested_on": "MDA-MB-435 (melanoma) cancer cell line", "experiment": "Cytotoxicity assay, MDA-MB-435 cells", "type": "cell-based, human", "settings": "for pIC50: Homo sapiens, MDA-MB-435, 72 h, read-out: IC50 values, MDA-MB-435; for factor by which activity is reduced relative to compound 5: MDA-MB-435 cells, versus 5"}, "Stability in solution": {"experiment": "Stability in solution", "type": "physicochemical", "settings": "CDCl3"}},
  "note": "pIC50: −log10 of the molar value.",
  "data": [
    {"smiles": "COc1cc(O)c(Cl)c2c1C(=O)O[C@@H](C)CCC(=O)CCCCC(=O)C2", "note": "[Compound 3, 8,9-dihydrogreensporone A]", "values": [
      {"measurement": "pIC50", "setting": "[1]", "value": "< 4.70"},
      {"measurement": "pIC50", "setting": "[2]", "value": "< 4.70"}
    ]},
    {"smiles": "COc1cc(O)cc2c1C(=O)O[C@@H](C)CC[C@H]1CC[C@H](CC(=O)C2)O1", "note": "[Compound 14, greensporone G]", "values": [
      {"measurement": "pIC50", "setting": "[1]", "value": "< 4.70"},
      {"measurement": "pIC50", "setting": "[2]", "value": "< 4.70"}
    ]},
    {"smiles": "COc1cc(O)c(Cl)c2c1C(=O)O[C@@H](C)CCC(=O)CC/C=C/C(=O)C2", "note": "[Compound 1, greensporone A]", "values": [
      {"measurement": "factor by which activity is reduced relative to compound 5", "setting": "[2]", "value": "~5"}
    ]},
    {"smiles": "COc1cc(O)c(Cl)c2c1C(=O)O[C@@H](C)CC[C@@H](O)CC/C=C/C(=O)C2", "note": "[Compound 8, greensporone D]", "values": [
      {"measurement": "stability in solution", "setting": "Stability in solution", "value": "converted to 12"}
    ]},
    {"smiles": "COc1cc(O)cc2c1C(=O)O[C@@H](C)CCCCCCCC(=O)C2", "note": "[Compound 7, 8,9-dihydrogreensporone C]", "values": [
      {"measurement": "pIC50", "setting": "[1]", "value": "< 4.70"},
      {"measurement": "pIC50", "setting": "[2]", "value": "< 4.70"}
    ]},
    {"smiles": "COc1cc(O)cc2c1C(=O)O[C@@H](C)CC[C@@H](O)CC/C=C/C(=O)C2", "note": "[Compound 10, dechlorogreensporone D]", "values": [
      {"measurement": "factor by which activity is reduced relative to compound 5", "setting": "[2]", "value": "~4"}
    ]},
    {"smiles": "COc1cc(O)cc2c1C(=O)O[C@@H](C)CCC(=O)CC/C=C/C(=O)C2", "note": "[Compound 4, dechlorogreensporone A]", "values": [
      {"measurement": "factor by which activity is reduced relative to compound 5", "setting": "[2]", "value": "~5"}
    ]},
    {"smiles": "C[C@H]1CCCCC/C=C/C(=O)Cc2cc(O)cc(O)c2C(=O)O1", "note": "[Compound 6, O-desmethylgreensporone C]", "values": [
      {"measurement": "factor by which activity is reduced relative to compound 5", "setting": "[1]; HT-29 cells, versus 5", "value": 2},
      {"measurement": "factor by which activity is reduced relative to compound 5", "setting": "[2]", "value": 5}
    ]},
    {"smiles": "COc1cc(O)c(Cl)c2c1C(=O)O[C@@H](C)CC[C@@H](O)CCCCC(=O)C2", "note": "[Compound 11, 8,9-dihydrogreensporone D]", "values": [
      {"measurement": "pIC50", "setting": "[1]", "value": "< 4.70"},
      {"measurement": "pIC50", "setting": "[2]", "value": "< 4.70"}
    ]},
    {"smiles": "COc1cc(O)cc2c1C(=O)O[C@@H](C)CC[C@H]1CC[C@@H](CC(=O)C2)O1", "note": "[Compound 13, dechlorogreensporone F]", "values": [
      {"measurement": "pIC50", "setting": "[1]", "value": "< 4.70"},
      {"measurement": "pIC50", "setting": "[2]", "value": "< 4.70"}
    ]},
    {"smiles": "COc1cc(O)c(Cl)c2c1C(=O)O[C@@H](C)CCC(=O)CC/C=C\\C(=O)C2", "note": "[Compound 2, greensporone B]", "values": [
      {"measurement": "pIC50", "setting": "[1]", "value": "< 4.70"},
      {"measurement": "pIC50", "setting": "[2]", "value": "< 4.70"}
    ]},
    {"smiles": "COc1cc(O)c(Cl)c2c1C(=O)O[C@@H](C)CC[C@@H](O)CC/C=C\\C(=O)C2", "note": "[Compound 9, greensporone E]", "values": [
      {"measurement": "pIC50", "setting": "[1]", "value": "< 4.70"},
      {"measurement": "pIC50", "setting": "[2]", "value": "< 4.70"}
    ]}
  ]
}
